Assay results from patent US9540373B2, “Substituted spirocycles” (Boehringer Ingelheim International GmbH, priority 2014, dated 2017).
Like-named read-outs stand apart in the source and are kept apart here.

Key:
[1] = Determination of metabolic stability with human liver microsomes; type: in vitro ADME; settings: pH 7.6; pooled human liver microsomes, 1 mg/ml protein, 1 μM compound, 37° C., NADPH; read-out: In vitro stability in human liver microsome incubations t1/2
Protocol: Determination of Metabolic Stability with Human Liver Microsomes
The metabolic degradation of the test compound is assayed at 37° C. with pooled human liver microsomes. The final incubation volume of 100 μl per time point contains TRIS buffer pH 7.6 (0.1 M), magnesium chloride (5 mM), microsomal protein (1 mg/ml) and the test compound at a final concentration of 1 μM. Following a short preincubation period at 37° C., the reactions are initiated by addition of beta-nicotinamide adenine dinucleotide phosphate, reduced form (NADPH, 1 mM) and terminated by transferring an aliquot into acetonitrile after different time points. Additionally, the NADPH-independent degradation is monitored in incubations without NADPH, terminated at the last time point. The [%] remaining test compound after NADPH independent incubation is reflected by the parameter c (control) (metabolic stability). The quenched incubations are pelleted by centrifugation (10′000 g, 5 min.) An aliquot of the supernatant is assayed by LC-MS/MS for the amount of parent compound.
The half-life (t1/2 INVITRO) is determined by the slope of the semilogarithmic plot of the concentration-time profile. The intrinsic clearance (CL_INTRINSIC) is calculated by considering the amount of protein in the incubation: CL_INTRINSIC [μl/min/mg protein]=(ln 2/(half-life [min]*protein content [mg/ml]))*1′000.

[2] = system: neutrophil elastase activity in U937 cells; assay: Determination of neutrophil elastase activity in U937 cytosolic lysate preparation after incubation with test compound; type: cell-based; settings: Homo sapiens, U-937; U937 cells incubated 48 hours with compound, NE activity in lysate; read-out: Reduction of NE-activity in U937 cells IC50
Protocol: Determination of Neutrophil Elastase Activity in U937 Cytosolic Lysate Preparation after Incubation with Test Compound Materials:
24 well Nunclon cell culture plates (No. 142475) and 96 well plates (No. 267245) were from Nunc.
Dimethylsulfoxid (DMSO) was from Sigma (Prod. No. D8418). Nonidet-P40 (NP40) was from USBiological (Prod. No. N3500)
Substrate, specific for Neutrophil elastase, was from Bachem (MeOSuc-Ala-Ala-Pro-Val-AMC; Prod. No. I-1270).
Human neutrophil elastase was from Calbiochem (Prod. No. 324681)
Tris-buffer (100 mM Tris; 1M NaCl; pH 7.5)
Tris-buffer+HSA 0.1%; Human Serum Albumin from Calbiochem (Cat#. 126658)
Serine-protease buffer (20 mM Tris; 100 mM NaCl; pH 7.5)+0.1% HSA
Serine protease lysis buffer: 20 mM Tris-HCl; 100 mM NaCl pH 7.5; +0.2% Nonidet-P40;
PBS: phosphate buffered saline, without Ca and Mg, from Gibco
U937 from ECACC (Cat. No. 85011440) cultured in suspension at 37° C. and 5% CO2.
Cell density: 0.2-1 Mio. Cells/ml.
Medium: RPMI1640 GlutaMAX (No. 61870) with 10% FCS from Gibco
Cell Seeding and Treatment:
Compounds in 100% DMSO were diluted in Medium (−FCS) with 10% DMSO and further diluted according to the experiment planned.
20 μl of the compound solution was transferred in the respective wells of the 24 well plate and diluted with 2 ml cell suspension/well containing 1×10^5 cells/ml (final concentration of DMSO=0.1%). Compound dilution factor=100
Compounds (up to 7 concentrations) were tested in triplicates with 3 wells for the DMSO 0.1% control, incubated for 48 hours without medium change at 37° C., 5% CO2 and 95% relative humidity.
Cell Harvesting and Cell Lysate:
Transfer the cell suspension in 2 ml 96 well assay block. Separate cells from medium by centrifugation (500×g; 10 min; RT); discard the supernatant. Resuspend in 1 ml PBS; centrifugation (500×g; 10 min; RT); wash cells twice with PBS. Add 80 μl Serine protease lysis buffer (ice cold) to the cell pellet; resuspend the pellet and store on ice for 10 minutes. Remove debris by centrifugation at 1000×g for 10 min at 4° C. Transfer 80-100 μl lysate supernatant in 96 well plate and store immediately at −80° C.
Neutrophil Elastase Activity Assay:
Frozen lysates were thaw at 37° C. for 10 minutes and stored on ice. Protein content was determined with Bradford protein assay. Lysates were diluted to 0.2-0.5 mg/ml protein in serine protease buffer+HSA.
Standard: NE (100 μg/ml stock solution in Tris-buffer; stored at −80° C.) was diluted in Tris-buffer+HSA to 750 ng/ml, and further serially diluted 1:2 for the standard curve. Buffer, blank, standard and lysate samples were transferred into 384 well plate
Blank: 5 μl Tris-buffer+10 μl Serine protease buffer+5 μl Substrate
Standard: 5 μl Tris-buffer+10 μl NE (diff. conc.)+5 μl Substrate
Lysate: 5 μl Tris-buffer+10 μl Lysat+5 μl Substrate
The increase in fluorescence (Ex360 nm/Em 460 nm) is determined after 30 minutes with a Molecular Device Spectramax M5 Fluorescence Reader. The result is interpolated to ng/mg lysate protein using excel formula functions. Percent inhibition in the compound-treated lysate samples is calculated relative to the DMSO-treated control-sample (100−(compound-sample*100)/control-sample)
A test compound will give values between 0% and 100% inhibition of neutrophil elastase. IC50 is calculated using Graphpad Prism; nonlinear fitting (log(inhibitor) vs. response—Variable slope). The IC50 value is interpolated as the concentration of test compound which leads to a neutrophil elastase activity reduction of 50% (relative to the DMSO-treated control).

[3] = target: recombinant human DPPI (Cathepsin C) (Homo sapiens (Human), UniProt P53634); assay: Inhibition of human DPPI (Cathepsin C); type: biochemical
Protocol: Inhibition of Human DPPI (Cathepsin C)
The analysis of the data was performed by calculating the percentage of fluorescence in the presence of test compound in comparison to the fluorescence of the vehicle control after 20 subtracting the background fluorescence using the following formula: (RFU(sample)−RFU(background))*100/(RFU(control)−RFU(background))
Data from these calculations were used to generate IC50 values for inhibition of DPPI, respectively.

[4] = recombinant human DPPI, substrate Gly-Arg-AMC, pH 6.0, read-out: Inhibition of DPPI IC50
[5] = Table 14, compounds examined in X-ray crystallography, read-out: CatC IC50

recombinant human DPPI (Cathepsin C), sequence (P53634 231-394): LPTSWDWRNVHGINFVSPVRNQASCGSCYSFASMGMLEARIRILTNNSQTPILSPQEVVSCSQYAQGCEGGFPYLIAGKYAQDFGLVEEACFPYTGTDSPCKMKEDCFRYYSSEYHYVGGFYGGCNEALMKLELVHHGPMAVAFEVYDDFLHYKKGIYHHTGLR
recombinant human DPPI (Cathepsin C), sequence (P53634 25-134): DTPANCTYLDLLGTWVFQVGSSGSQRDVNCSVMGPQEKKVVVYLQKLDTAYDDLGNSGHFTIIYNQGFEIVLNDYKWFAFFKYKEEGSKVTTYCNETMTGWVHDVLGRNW
recombinant human DPPI (Cathepsin C), sequence (P53634 395-463): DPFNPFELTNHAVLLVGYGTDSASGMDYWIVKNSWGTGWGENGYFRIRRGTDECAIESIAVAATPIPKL

Row | IC50 [3, 5] [nM] | Compound | half-life at 1 μM [1] [h] | IC50 [2] [nM] | IC50 [3, 4] [nM]
1 |  | N#C[C@H](Cc1ccc(-c2ccc3c(c2)C2(CCNCC2)C(=O)N3)cc1F)NC(=O)[C@H]1N[C@@H]2CC[C@H]1C2 [Example 3] | > 2.17 | 503 | 0.3
2 |  | CN1CCC2(CC1)C(=O)N(C)c1ccc(-c3ccc(C[C@@H](C#N)NC(=O)[C@H]4N[C@@H]5CC[C@H]4C5)c(F)c3)cc12 [Example 5] | > 2.17 | 2.3 | 0.6
3 | 0.7 | N#C[C@H](Cc1ccc(-c2ccc3c(c2)C2(CNC2)OC3=O)cc1F)NC(=O)[C@H]1N[C@@H]2CC[C@H]1C2 [Example 11] | > 2.17 | 10.7 | 0.7
4 |  | CN1CCCC2(C1)C(=O)N(C)c1ccc(-c3ccc(C[C@@H](C#N)NC(=O)[C@H]4N[C@@H]5CC[C@H]4C5)c(F)c3)cc12 (some centres unmarked) [Example 17] | 1 | 0.6 | 1.6
5 |  | CN1CCC2(C1)OC(=O)c1cnc(-c3ccc(C[C@@H](C#N)NC(=O)[C@H]4N[C@@H]5CC[C@H]4C5)c(F)c3)cc12 (some centres unmarked) [Example 20] | > 2.17 | 23.2 | 1.6
6 |  | N#C[C@H](Cc1ccc(-c2ccc3c(n2)C2(CCN(C4COC4)CC2)OC3=O)cc1F)NC(=O)[C@H]1N[C@@H]2CC[C@H]1C2 [Example 24] | > 2.17 | 6 | 2.7
7 | 0.5 | N#C[C@H](Cc1ccc(-c2ccc3c(c2)C2(CCNC2)C(=O)N3)cc1F)NC(=O)[C@H]1N[C@@H]2CC[C@H]1C2 (some centres unmarked) [Example 16] | > 2.17 | 73.8 | 0.5
8 |  | CN1CCC2(CC1)OC(=O)c1ncc(-c3ccc(C[C@@H](C#N)NC(=O)[C@H]4N[C@@H]5CC[C@H]4C5)c(F)c3)cc12 [Example 21] | > 2.17 | 63.7 | 1.4
9 |  | N#C[C@H](Cc1ccc(-c2ccc3c(c2)C2(CCNCC2)CC3)cc1F)NC(=O)[C@H]1N[C@@H]2CC[C@H]1C2 [Example 2] | > 2.17 | 6.8 | 0.6
10 |  | N#C[C@H](Cc1ccc(-c2ccc3c(c2)C2(CCN(C4COC4)CC2)OC3)cc1F)NC(=O)C12CCC(CC1)CN2 [Example 27, N-[(1S)-1-cyano-2-[2-fluoro-4-[1′-(oxetan-3-yl)spiro[1H-isobenzofuran-3,4′-piperidine]-5-yl]phenyl]ethyl]-3-azabicyclo[2.2.2]octane-4-carboxamide] | 2 | 0.7 | 2.9
11 |  | N#C[C@H](Cc1ccc(-c2ccc3c(c2)C2(CCNC2)OC3=O)cc1F)NC(=O)[C@H]1N[C@@H]2CC[C@H]1C2 (some centres unmarked) [Example 9] | > 2.17 | 21.5 | 0.5
12 |  | CN1CCC2(C1)OC(=O)c1ccc(-c3ccc(C[C@@H](C#N)NC(=O)[C@H]4N[C@@H]5CC[C@H]4C5)c(F)c3)cc12 (some centres unmarked) [Example 10] | > 2.17 | 1.4 | 0.6
13 |  | CN1CCC2(CC1)OCc1ccc(-c3ccc(C[C@@H](C#N)NC(=O)[C@H]4N[C@@H]5CC[C@H]4C5)c(F)c3)cc12 [Example 14] | > 2.17 | 1.1 | 1
14 |  | CN1C(=O)C2(CCNCC2)c2cc(-c3ccc(C[C@@H](C#N)NC(=O)[C@H]4N[C@@H]5CC[C@H]4C5)c(F)c3)ccc21 [Example 4] | > 2.17 | 91 | 0.4
15 |  | N#C[C@H](Cc1ccc(-c2ccc3c(c2)C2(CCNCC2)OC3=O)cc1F)NC(=O)[C@H]1N[C@@H]2CC[C@H]1C2 [Example 7] | > 2.17 | 34.9 | 0.5
16 |  | N#C[C@H](Cc1ccc(-c2cc3c(cn2)C(=O)OC32CCN(C3COC3)CC2)cc1F)NC(=O)[C@H]1N[C@@H]2CC[C@H]1C2 [Example 22] | > 2.17 | 15.7 | 4.8
17 |  | CN1CCC2(CC1)OC(=O)c1cnc(-c3ccc(C[C@@H](C#N)NC(=O)[C@H]4N[C@@H]5CC[C@H]4C5)c(F)c3)cc12 [Example 19] | > 2.17 | 5 | 1
18 |  | CN1CCC2(CC1)OCc1cnc(-c3ccc(C[C@@H](C#N)NC(=O)[C@H]4N[C@@H]5CC[C@H]4C5)c(F)c3)cc12 [Example 26, (1S,2S,4R)—N-[(1S)-1-cyano-2-[2-fluoro-4-(1′-methylspiro[3H-furo[3,4-c]pyridine-1,4′-piperidine]-6-yl)phenyl]ethyl]-3-azabicyclo[2.2.1]heptane-2-carboxamide] | 0.917 | 4.6 | 2
19 |  | CN1CCC2(CCc3ccc(-c4ccc(C[C@@H](C#N)NC(=O)[C@H]5N[C@@H]6CC[C@H]5C6)c(F)c4)cc32)CC1 [Example 15] | > 2.17 | 0.2 | 0.5
20 |  | CN1CC2(C1)OC(=O)c1ccc(-c3ccc(C[C@@H](C#N)NC(=O)[C@H]4N[C@@H]5CC[C@H]4C5)c(F)c3)cc12 [Example 12] | 0.767 | 1.2 | 0.5
21 |  | N#C[C@H](Cc1ccc(-c2cc3c(cn2)C(=O)OC32CCNCC2)cc1F)NC(=O)[C@H]1N[C@@H]2CC[C@H]1C2 [Example 18] | > 2.17 | 220 | 1.6
22 |  | N#C[C@H](Cc1ccc(-c2cc3c(cn2)COC32CCN(C3COC3)CC2)cc1F)NC(=O)[C@H]1N[C@@H]2CC[C@H]1C2 [Example 23, (1S,2S,4R)—N-[(1S)-1-cyano-2-[2-fluoro-4-[1′-(oxetan-3-yl)spiro[3H-furo[3,4-c]pyridine-1,4′-piperidine]-6-yl]phenyl]ethyl]-3-azabicyclo[2.2.1]heptane-2-carboxamide] | > 2.17 | 7.5 | 5
23 |  | CN1CCC2(CC1)OC(=O)c1ccc(-c3ccc(C[C@@H](C#N)NC(=O)[C@H]4N[C@@H]5CC[C@H]4C5)c(F)c3)cc12 [Example 8] | 1.23 | 0.8 | 0.7
